Source: ChEMBL document CHEMBL3621087, “Adamantane amine derivatives as dual acting NMDA receptor and voltage-gated calcium channel inhibitors for neuroprotection” (Medchemcomm, 2014)
Calls of active or inactive are those of the source. No cut-off for these calls is given here.

Columns and labels:
Mus musculus [1] = species: Mus musculus; assay: Inhibition of voltage-gated calcium channel in mouse synaptoneurosomes assessed as reduction of KCl-induced calcium influx at 100 uM after 30 mins using Fura-2 AM by fluorescence assay relative to control
Mus musculus [2] = species: Mus musculus; assay: Inhibition of NMDA receptor in mouse synaptoneurosomes assessed as reduction of NMDA/glycine-induced calcium influx at 100 uM after 30 mins using Fura-2 AM by fluorescence assay relative to control

Structure (SMILES) | inhibition (Mus musculus [1]) | inhibition (Mus musculus [2])
CC12CC3CC(C)(C1)CC(N)(C3)C2 | 5.2% | 92.5%
C[C@]12N[C@H](Cc3ccccc31)c1ccccc12 | inactive | 100%
c1ccc(CNC23OC4C5C6CC(C7C6C4C72)C53)cc1 (stereo not given) | 38.4% | 22.2%
Nc1cccc(CNC23CC4CC(CC(C4)C2)C3)c1 | 30% | 48.3%
O=[N+]([O-])c1ccccc1CNC12CC3CC(CC(C3)C1)C2 | 49.2% | 60.6%
O=[N+]([O-])c1cccc(CNC23CC4CC(CC(C4)C2)C3)c1 | 14.3% | 36.6%
Nc1ccc(CNC23CC4CC(CC(C4)C2)C3)cc1 | 49.5% | 50.4%
c1ccc(CCNC23CC4CC(CC(C4)C2)C3)cc1 | 42% | 89.5%
NC12CC3CC(CC(C3)C1)C2 | 2.76% | 84.6%
c1ccc(CNC23CC4CC(CC(C4)C2)C3)cc1 | 39.6% | 66.7%
COc1cccc(CNC23CC4CC(CC(C4)C2)C3)c1 | 44.7% | 70.2%
COc1ccc(CNC23CC4CC(CC(C4)C2)C3)cc1 | 71.2% | 79.2%
O=[N+]([O-])c1ccc(CNC23CC4CC(CC(C4)C2)C3)cc1 | 85.7% | 74.8%
COCCOC(=O)C1=C(C)NC(C)=C(C(=O)OC(C)C)C1c1cccc([N+](=O)[O-])c1 (stereo not given) | 100% | inactive
Nc1ccccc1CNC12CC3CC(CC(C3)C1)C2 | 37.1% | 31.3%
